Test results: patent publication EP2929785A1, “A PLA inhibitor for inhibition of fat absorption” (PAT GmbH, priority 2014, dated 2015)

Tests used:
[1] = test system: cytosolic LPC; assay: Cytosolic LPC concentration in HepG2 cells; format: cell-based, human
Description: LPC concentration in cytosolic supernatants was measured as previously described (Kishimoto T et al. Clin. Biochem. 2002; 35: 411-416).

[2] = test system: fatty acid uptake complex components; assay: Transcript levels of fatty acid uptake complex components by semi-quantitative RT-PCR in HepG2 cells; format: cell-based, human; details: after 1 h of treatment, UDCA-LPE 50 µM (Fig. 6)
Text: The following forward and reverse primers (Sigma) were used for RT-PCR: iPLA2ß, [NT] (SEQ ID NO: 1) and [NT] (SEQ ID NO: 2); CD36, [NT] (SEQ ID NO: 3) and [NT] (SEQ ID NO: 4); […] (SEQ ID NO: 5) and [NT] (SEQ ID NO: 6); and caveolin-1, [NT] (SEQ ID NO: 7) and reverse [NT] (SEQ ID NO: 8). The primers for FATP4 and ß-actin (internal control) were the same as those previously used as described in […] et al. Am J Physiol Endocrinol Metab 2011; 301, 785-796.

[3] = test system: iPLA2ß-/- hepatocytes; assay: Fatty acid influx in primary hepatocytes from iPLA2ß-/- mice; format: cell-based; details: UDCA-LPE pretreatment (Fig. 4B)
[4] = target: T1, fatty acid uptake complex in the DRM-PM consisting of CD36, FABPPM, caveolin1, and iPLA2ß (Homo sapiens, UniProt O60733); assay: Disassembly of the fatty acid uptake complex in DRM-PM of HepG2 cells (immunoprecipitation, western blotting); format: cell-based
T1 construct: western blotting of DRM-PM isolated from these cells; endogenous in cells; host or cells: HepG2
T1 sequence (O60733 1-806): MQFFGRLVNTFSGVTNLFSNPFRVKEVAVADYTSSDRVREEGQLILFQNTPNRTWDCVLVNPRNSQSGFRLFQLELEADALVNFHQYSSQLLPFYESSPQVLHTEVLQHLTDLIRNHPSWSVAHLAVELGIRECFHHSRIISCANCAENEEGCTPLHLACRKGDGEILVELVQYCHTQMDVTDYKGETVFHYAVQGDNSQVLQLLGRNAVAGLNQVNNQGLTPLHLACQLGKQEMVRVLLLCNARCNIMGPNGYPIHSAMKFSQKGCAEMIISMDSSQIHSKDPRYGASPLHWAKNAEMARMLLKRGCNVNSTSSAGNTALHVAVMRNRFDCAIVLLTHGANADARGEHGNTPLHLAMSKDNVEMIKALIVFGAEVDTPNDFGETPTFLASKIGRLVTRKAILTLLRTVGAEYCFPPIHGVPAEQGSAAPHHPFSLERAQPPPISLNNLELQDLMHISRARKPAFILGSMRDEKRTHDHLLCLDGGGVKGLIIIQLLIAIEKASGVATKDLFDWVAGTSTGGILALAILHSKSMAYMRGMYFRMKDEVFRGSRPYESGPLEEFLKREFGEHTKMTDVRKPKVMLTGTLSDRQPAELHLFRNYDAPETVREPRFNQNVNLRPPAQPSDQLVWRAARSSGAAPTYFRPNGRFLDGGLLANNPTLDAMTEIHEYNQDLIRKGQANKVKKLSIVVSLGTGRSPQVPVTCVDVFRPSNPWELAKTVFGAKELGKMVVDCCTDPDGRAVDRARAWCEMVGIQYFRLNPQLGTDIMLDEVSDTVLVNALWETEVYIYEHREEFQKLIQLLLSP
Description: Detergent-resistant PM (DRM-PM) and non-DRM-PM fractions were isolated and characterized as previously described (Pohl J et al. Mol Biol Cell. 2005; 16: 24-31). Subcellular membrane fractions were prepared by centrifugation at 100,000 g for 1 h to obtain homogenate pellets. Nuclear extracts were obtained by centrifugation at 500 g for 5 min. Pellets were washed and resuspended in a buffer solution containing […] (pH 7.4), 100 mM NaCl, and 0.1 mM EDTA (Marzluff WF et al. Meth Cell Biol. 1987; 317-331)). The protein concentration was determined by the Bradford method (Bio- Rad, Munich, Germany).
Immunoblotting was performed according to a standard protocol as set out in Sun Q., et al. Biol Med (Maywood). 2012; 237: 178-185. […] To estimate the protein concentration a semi-quantitative densitometry was performed as described in Sun Q et al. (loc cit.). […]

IC50 ([1]; 30 min treatment (Fig. 7), read-out: suppression of cytosolic LPC (IC50)): 47 µM | incubation time at which the fatty acid uptake complex began to disassemble ([4]; 50 µM): ≥ 30 min | concentration at which the fatty acid uptake complex began to disassemble ([4]; 30 min of incubation): ≥ 50 µM
Substance: ursodeoxycholatelysophosphatidylethanolamide [UDCA-LPE]
cytosolic LPC ([1]; UDCA-LPE 50 µM (Fig. 6), before treatment 8.0 ± 1.3): 3.5 ± 0.2 µmol/mg protein | transcript levels of all fatty acid uptake complex components [2]: < 10 % of initial values | fatty acid influx [3]: not
